Measurements reported in patent publication US20260262643A1, “HERBICIDAL BENZOXAZINES” (FMC CORPORATION, priority 2022, published 2026).

Columns and labels:
corn = assay: Test A preemergence; type: in vivo, Zea mays; conditions: 0 to 100 scale
In short: (§1)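 Greenhouse pot test, 10 days. Compound (non-phytotoxic solvent, surfactant) sprayed on soil at seeding or on seedlings at one- to two-leaf stage. Visual injury rated 0–100 against untreated plants.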

foxtail, giant = assay: Test A preemergence; type: in vivo, Setaria faberi; conditions: 0 to 100 scale
In short: as §1

kochia = assay: Test A preemergence; type: in vivo, Bassia scoparia; conditions: 0 to 100 scale
In short: as §1

oat, wild [1] = assay: Test A preemergence; type: in vivo, Avena fatua; conditions: 0 to 100 scale
In short: as §1

pigweed, palmer = assay: Test A preemergence; type: in vivo, Amaranthus palmeri; conditions: 0 to 100 scale
In short: as §1

ryegrass, Italian = assay: Test A preemergence; type: in vivo, Lolium multiflorum; conditions: 0 to 100 scale
In short: as §1

wheat [2] = assay: Test A preemergence; type: in vivo, Triticum aestivum; conditions: 0 to 100 scale
In short: as §1

blackgrass = assay: Test A postemergence; type: in vivo, Alopecurus myosuroides; conditions: postemergence, 10 days
In short: as §1

oat, wild [3] = assay: Test A postemergence; type: in vivo, Avena fatua; conditions: postemergence, 10 days
In short: as §1

ragweed = assay: Test A postemergence; type: in vivo, Ambrosia artemisiifolia; conditions: postemergence, 10 days, 0 to 100 scale (0 no effect, 100 complete control)
In short: as §1

soybean = assay: Test A postemergence; type: in vivo, Glycine max; conditions: postemergence, 10 days, 0 to 100 scale (0 no effect, 100 complete control)
In short: as §1

wheat [4] = assay: Test A postemergence; type: in vivo, Triticum aestivum; conditions: postemergence, 10 days, 0 to 100 scale (0 no effect, 100 complete control)
In short: as §1

horseweed = assay: Test A postemergence; type: in vivo, Erigeron canadensis; conditions: postemergence, 10 days, 0 to 100 scale (0 no effect, 100 complete control)
In short: as §1

ducksalad = assay: Test B flooded paddy test; type: in vivo, Heteranthera limosa; conditions: 250 g ai/ha, Flood, 13 days, 0 to 100 scale (0 no effect, 100 complete control)
In short: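 Percent weed or crop control, judged by eye on a 0–100 scale 13 days post-treatment, reflects compound added to a 3 cm flood maintained over 2-leaf plants in the greenhouse. Missing entries are marked with a dash.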

[5] = 500 g ai/ha, visual injury after 10 days, 0 is no effect, 100 is complete control
[6] = 125 g ai/ha, 0 to 100 scale, 0 no effect, 100 complete control
[7] = 500 g ai/ha, visual injury, 0 to 100 scale (0 no effect, 100 complete control)

CC(C)c1ncn(-c2cc(C(=O)N3C[C@H](C)Oc4c(Cl)cccc43)c3ccccc3c2)n1 [Compound 146]
Plant response rating, Corn (corn; [5]): 0 | Corn plant response rating (crop injury, 0 = no effect, 100 = complete kill) at 125 g/ha (corn; Zea mays, pre-emergence, 240 h, 125 g ai/ha): 0% | Plant response rating, Foxtail, Giant (foxtail, giant; [5]): 100 | pest or weed control at 125 g/ha (foxtail, giant; Setaria faberi, pre-emergence, 240 h, 125 g ai/ha, read-out: Plant response rating, Foxtail, Giant): 80% | Plant response rating, Kochia (kochia; 125 g ai/ha): 10 | Plant response rating, Kochia (kochia; [5]): 30 | Plant response rating, Oat, Wild (oat, wild [1]; [5]): 20 | pest or weed control at 125 g/ha (oat, wild [1]; Avena fatua, pre-emergence, 240 h, 125 g ai/ha, read-out: Plant response rating, Oat, Wild): 0% | Plant response rating, Pigweed, Palmer (pigweed, palmer; [5]): 100 | pest or weed control at 125 g/ha (pigweed, palmer; Amaranthus palmeri, pre-emergence, 240 h, 125 g ai/ha, read-out: Plant response rating, Pigweed, Palmer): 90% | Plant response rating, Ryegrass, Italian (ryegrass, Italian; [5]): 70 | pest or weed control at 125 g/ha (ryegrass, Italian; Lolium multiflorum, pre-emergence, 240 h, 125 g ai/ha, read-out: Plant response rating, Ryegrass, Italian): 30% | Plant response rating, Wheat (wheat [2]; [5]): 0 | plant injury at 125 g/ha (wheat [2]; Triticum aestivum, pre-emergence, 240 h, 125 g ai/ha, read-out: Plant response rating, Wheat): 0% | Blackgrass plant response rating (blackgrass; [6]): 10 | Plant response rating, Blackgrass (blackgrass; [7]): 20 | Oat, Wild plant response rating (oat, wild [3]; [6]): 0 | Plant response rating, Oat, Wild (oat, wild [3]; [7]): 10 | Plant response rating, Ragweed (ragweed; 500 g ai/ha, visual injury): 0 | pest or weed control at 125 g/ha (ragweed; Ambrosia artemisiifolia, post-emergence, 240 h, 125 g ai/ha, read-out: Ragweed plant response rating): 0% | Plant response rating, Soybean (soybean; 500 g ai/ha, visual injury): 100 | plant injury at 125 g/ha (soybean; Glycine max, post-emergence, 240 h, 125 g ai/ha, read-out: Soybean plant response rating): 50% | Plant response rating, Wheat (wheat [4]; 500 g ai/ha, visual injury): 30 | plant injury at 125 g/ha (wheat [4]; Triticum aestivum, post-emergence, 240 h, 125 g ai/ha, read-out: Wheat plant response rating): 20% | Plant response rating, Horseweed (horseweed; 500 g ai/ha, visual injury): 0 | pest or weed control at 125 g/ha (horseweed; Erigeron canadensis, post-emergence, 240 h, 125 g ai/ha, read-out: Horseweed plant response rating): 0% | Plant response rating, Ducksalad (ducksalad): 0
